These results are taken from US10053477B2, “Spirocyclic aryl phosphorus oxide and aryl phosphorus sulfide” (QILU PHARMACEUTICAL CO., LTD., priority 2014, dated 2018).

For assay [1], the system named is LU-01-0015 xenotransplantation (PDX) from lung cancer patients. Put plainly: In vivo efficacy, LU-01-0015 xenotransplantation (PDX) from lung cancer patients. The note with it: 25 mg/kg orally everyday. The arrangement: species or system BALB/c nude mice. From the text: BALB/c nude mice, female, 6 to 8 weeks, about 18 to 22 g bodyweight, was kept in a special environment without pathogens, and a single ventilated cage (5 mice per cage). Beddings and water in all the cages were disinfected before use. […] 80 mice were supplied by Shanghai BK Laboratory Animal Co., LTD for study. Each mouse was subcutaneously implanted tumor tissue (20-30 mm^3) at right flank for growth of tumor. When the average tumor volume reached about 250-300 mm^3, the assay started. Test compounds were delivered orally everyday, 25 mg/kg. Tumor size was measured with two-dimensional caliper every 3 days, size was recorded by mm^3, and calculated by the following formula: V=V=0.5a×b2, where a and b are respectively the long diameter and short diameter length of the tumor. The antitumor efficacy was determined by dividing the average increased tumor volume in compound-treated animal by the average increased tumor volume in untreated animal.

In the next assay the target is T1, EGFR T790M/L858R (Homo sapiens, UniProt P00533, L858R/T790M).
T1 construct: purchased Life technology (Madison, Wis.)
Put plainly: EGFR T790M/L858R enzymatic inhibition (HTRF). The class given is biochemical. The note with it: 20 μM ATP. The method, then: Enzyme: ALK wild-type, ALK C1156Y and ALK L1196M supplied by Carna Biosciences (Japan), EGFR T790M/L858R supplied by Life technology (Madison, Wis.).
HTRF kit: supplied by Cis-Bio International, with Eu-marked TK1 antibody, XL665- and biotin-labelled TK1 polypeptide substrates.
The compound to be tested is diluted at a gradient by 3 times thereby giving 11 gradients starting from […] to 0.017 nM for the final concentration.
10 μl EGFR T790M/L858R enzyme reaction mixture system: 0.08 nM EGFR T790M/L858R, 1 μM biotin-TK1 peptide, 20 μM ATP. Reaction buffer: 50 mM Hepes (pH7.5), 10 mM MgCl2, 0.01 mM NaV3VO4. The reaction plate was white Proxiplate 384-Plus plate (PerkinElmer). Reaction was reacted at room temperature for 60 minutes.
Detecting reaction: 10 μl testing reagent was added to the reaction plate, the final concentration of Antibody was 2 nM, XL665 was 62.5 nM. Incubation was carried out for 60 minutes at room temperature. Detection was by Envision.
For orientation: TR-FRET usually uses a lanthanide donor and a delayed reading to cut background.

Assay [2] concerns LU-01-0319 Crizotinib resistance model. Put plainly: In vivo anti-tumor efficacy, Crizotinib resistant LU-01-0319 xenotransplantation (PDX) tumor. The arrangement: species or system BALB/c nude mice. The note with it: 25 mg/Kg orally once a day. From the text: LU-01-0319 xenotransplantation tumor models initially obtained from clinical sample through surgical resection were implanted into nude mice, which was defined as a batch of P0 (LU-01-0319-P0). The next batch was defined as P1 (LU-01-0319-P1) which was implanted tumors from P0. FP3 was regained from P2, the next batch was defined as FP4 which was implanted tumors from FP3. […] The continuous increasing tumors were defined as LU-01-0319 antitumor models. BALB/c nude mice, female, 6 to 8 weeks, about 18 to 22 g bodyweight, 75 mice were used for study, supplied by Shanghai BK Laboratory Animal Co., LTD. Tumour biopsies (about 30 mm^3) of LU-01-0319R FP6 were implanted subcutaneously on right side of each mouse for growth of tumor. […] Dose of Crizotinib was appropriately varied depending on the tumor size. When average tumor volume reached about ˜500 mm^3, the assay began. Once a day the compounds to be tested were orally administered. Tumor size were measured twice a week with a caliper at two dimensions, and calculated with the following formula: V=0.5a×b2, where a and b are respectively long diameter and short diameter of the tumor. The antitumor efficacy was determined by dividing the average increased tumor volume in compound-treated animal by the average increased tumor volume in untreated animal.

T1 sequence (P00533 25-1210 T790M/L858R): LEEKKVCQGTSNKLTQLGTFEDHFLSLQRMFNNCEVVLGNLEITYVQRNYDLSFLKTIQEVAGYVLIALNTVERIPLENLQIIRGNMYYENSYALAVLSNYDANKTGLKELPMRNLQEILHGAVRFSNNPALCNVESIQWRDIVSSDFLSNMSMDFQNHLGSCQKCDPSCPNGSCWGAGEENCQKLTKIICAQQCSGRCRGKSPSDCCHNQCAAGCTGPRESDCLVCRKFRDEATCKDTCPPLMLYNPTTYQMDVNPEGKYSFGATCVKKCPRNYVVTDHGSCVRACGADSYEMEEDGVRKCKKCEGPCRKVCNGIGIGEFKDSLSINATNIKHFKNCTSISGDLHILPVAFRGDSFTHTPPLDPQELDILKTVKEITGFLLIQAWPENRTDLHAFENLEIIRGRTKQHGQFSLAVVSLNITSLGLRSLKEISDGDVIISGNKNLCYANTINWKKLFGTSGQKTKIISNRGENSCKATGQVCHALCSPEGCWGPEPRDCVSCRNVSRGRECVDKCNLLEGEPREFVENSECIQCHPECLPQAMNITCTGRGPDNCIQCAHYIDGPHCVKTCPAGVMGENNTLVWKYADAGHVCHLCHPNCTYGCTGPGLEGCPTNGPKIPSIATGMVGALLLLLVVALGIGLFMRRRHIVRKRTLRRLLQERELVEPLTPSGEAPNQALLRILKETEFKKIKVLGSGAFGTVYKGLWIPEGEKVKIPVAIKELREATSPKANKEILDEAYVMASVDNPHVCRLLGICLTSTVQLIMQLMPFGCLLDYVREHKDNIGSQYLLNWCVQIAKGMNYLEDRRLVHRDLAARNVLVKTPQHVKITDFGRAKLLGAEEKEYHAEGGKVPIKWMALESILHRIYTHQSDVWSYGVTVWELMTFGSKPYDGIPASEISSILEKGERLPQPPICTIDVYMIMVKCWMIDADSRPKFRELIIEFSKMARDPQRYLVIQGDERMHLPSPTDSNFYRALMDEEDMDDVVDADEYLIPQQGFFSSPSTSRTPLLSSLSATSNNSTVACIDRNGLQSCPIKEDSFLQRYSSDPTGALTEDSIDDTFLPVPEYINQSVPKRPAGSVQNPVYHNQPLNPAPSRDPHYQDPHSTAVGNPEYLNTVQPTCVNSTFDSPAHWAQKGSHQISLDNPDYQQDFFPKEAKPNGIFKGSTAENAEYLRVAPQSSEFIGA

As a reminder, the IC50 is the concentration that inhibits the measured activity by half. Read a low IC50 as higher potency. For the compound `COc1cc(N2CCC3(CCN(C)CC3)CC2)ccc1Nc1ncc(Cl)c(Nc2ccc(F)cc2P(C)(C)=O)n1` [Compound 26, (2-((5-Chloro-2-((2-methoxy-4-(9-methyl-3,9-diazaspiro[5.5]undecan-3-yl)phenyl)amino)pyrimidin-4-yl)amino)-5-fluorophenyl)dimethyl phosphine oxide], the Tumor volume in assay [1] (3 days) was 235 mm^3; in assay [1] (6 days), 127 mm^3; in assay [1] (9 days), 84 mm^3; in assay [1] (12 days), 55 mm^3; in assay [1] (16 days), 46 mm^3; in assay [1] (19 days), 59 mm^3. For the same compound, in assay [1] (23 days), the Tumor volume was 53 mm^3. The compound further returned an IC50 at EGFR T790M/L858R of 1 to 100 nM.
For `COc1cc(N2CCC3(CCN(C)CC3)CC2)c(Cl)cc1Nc1ncc(Cl)c(Nc2ccccc2P(C)(C)=O)n1` [Compound 22, (2-((5-Chloro-2-((5-chloro-2-methoxy-4-(9-methyl-3,9-diazaspiro[5.5]undecan-3-yl)phenyl)amino)pyrimidin-4-yl)amino)phenyl)dimethyl phosphine oxide], the Tumor volume in assay [1] (3 days) turned out to be 234 mm^3; in assay [1] (6 days) it was 137 mm^3; in assay [1] (9 days) it was 90 mm^3; in assay [1] (12 days) it was 68 mm^3; in assay [1] (16 days), 46 mm^3; in assay [1] (19 days), 54 mm^3. For the same compound, the Tumor volume in assay [1] (23 days) worked out at 41 mm^3. This compound also returned an IC50 against EGFR T790M/L858R of 1 to 100 nM.
Compound `COc1cc(N2CCC3(CCN(C)CC3)CC2)c(F)cc1Nc1ncc(Cl)c(Nc2ccccc2P(C)(C)=O)n1` [Compound 20, (2-((5-Chloro-2-((5-fluoro-2-methoxy-4-(9-methyl-3,9-diazaspiro[5.5]undecan-3-yl)phenyl)amino)pyrimidin-4-yl)amino)phenyl)dimethyl phosphine oxide] showed an IC50 on EGFR T790M/L858R of 1 to 100 nM.
Take `C[C@@H](Oc1cc(-c2cnn(C3CCNCC3)c2)cnc1N)c1c(Cl)ccc(F)c1Cl` [Crizotinib, reference compound]: the Tumor volume in assay [2] (0 day) is 502 mm^3; in assay [2] (3 days) it was 708 mm^3; in assay [2] (7 days), 828 mm^3; in assay [2] (10 days), 1002 mm^3; in assay [2] (13 days), 1116 mm^3; in assay [2] (17 days), 1415 mm^3. For the same compound, the Tumor volume was 1488 mm^3 in assay [2] (19 days); 297 mm^3 in assay [1] (3 days); 288 mm^3 in assay [1] (6 days); 311 mm^3 in assay [1] (9 days); 340 mm^3 in assay [1] (12 days); 413 mm^3 in assay [1] (16 days). The Tumor volume in assay [1] (19 days) is 419 mm^3; in assay [1] (23 days), 439 mm^3.
With `COc1cc(N2CCC3(CC2)CNC3)ccc1Nc1ncc(Cl)c(Nc2ccccc2P(C)(C)=O)n1` [Compound 4, (2-((5-Chloro-2-((2-methoxy-4-(2,7-diazaspiro[3.5]nonan-7-yl)phenyl)amino)pyrimidin-4-yl)amino)phenyl)dimethyl phosphine oxide], the half-maximal inhibitory concentration (IC50) against EGFR T790M/L858R lay within 1 to 100 nM.
`COc1cc(N2CCC3(CNC3)C2)ccc1Nc1ncc(Cl)c(Nc2ccccc2P(C)(C)=O)n1` [Compound 6, (2-((5-Chloro-2-((2-methoxy-4-(2,6-diazaspiro[3.4]octan-6-yl)phenyl)amino)pyrimidin-4-yl)amino)phenyl)dimethyl phosphine oxide] returned an IC50 against EGFR T790M/L858R of 1 to 100 nM.
As to `COc1cc(N2CCC3(CCNCC3)CC2)ccc1Nc1ncc(Cl)c(Nc2ccccc2P(C)(C)=O)n1` [Compound 8, (2-((5-Chloro-2-((2-methoxy-4-(3,9-diazaspiro[5.5]undecan-3-yl)phenyl)amino)pyrimidin-4-yl)amino)phenyl)dimethyl phosphine oxide], the 50% inhibitory concentration (IC50) at EGFR T790M/L858R was in the range of 1 to 100 nM.
`COc1cc(N2CCC3(CCN(C)CC3)CC2)ccc1Nc1ncc(Cl)c(Nc2ccccc2P(C)(C)=S)n1` [Compound 12, 5-Chloro-N^4-(2-(dimethylphosphorothioyl)phenyl)-N^2-(2-methoxy-4-(9-methyl-3,9-diazaspiro[5.5]undecan-3-yl)phenyl)pyrimidine-2,4-diamine]: the Tumor volume came out at 199 mm^3 in assay [1] (3 days); 97 mm^3 in assay [1] (6 days); 90 mm^3 in assay [1] (9 days); 58 mm^3 in assay [1] (12 days); 49 mm^3 in assay [1] (16 days); 42 mm^3 in assay [1] (19 days). In addition, the Tumor volume in assay [1] (23 days) is listed as 32 mm^3. The same compound had an IC50 on EGFR T790M/L858R of 1 to 100 nM.
In the case of `COc1cc(N2CCC3(CCN(C)CC3)CC2)ccc1Nc1ncc(Cl)c(Nc2c(F)cccc2P(C)(C)=O)n1` [Compound 25, (2-((5-Chloro-2-((2-methoxy-4-(9-methyl-3,9-diazaspiro[5.5]undecan-3-yl)phenyl)amino)pyrimidin-4-yl)amino)-3-fluorophenyl)dimethyl phosphine oxide], the IC50 against EGFR T790M/L858R was 101 to 1000 nM.
The same measure, in the same setting: the same measure for `CN1CCC2(CC1)CCN(c1ccc(Nc3ncc(Cl)c(Nc4ccccc4P(C)(C)=O)n3)c(OC(F)F)c1)CC2` [Compound 11, (2-((5-Chloro-2-((2-(difluoromethoxy)-4-(9-methyl-3,9-diazaspiro[5.5]undecan-3-yl)phenyl)amino)pyrimidin-4-yl)amino)phenyl)dimethyl phosphine oxide]: 1 to 100 nM; for `COc1cc(N2CCC3(CCN(C)CC3)CC2)c(C)cc1Nc1ncc(Cl)c(Nc2ccccc2P(C)(C)=O)n1` [Compound 23, (2-((5-Chloro-2-((2-methoxy-5-methyl-4-(9-methyl-3,9-diazaspiro[5.5]undecan-3-yl)phenyl)amino)pyrimidin-4-yl)amino)phenyl)dimethyl phosphine oxide]: 1 to 100 nM; for `COc1cc(N2CCC3(CCNC3)CC2)ccc1Nc1ncc(Cl)c(Nc2ccccc2P(C)(C)=O)n1` [Compound 3, (2-((5-Chloro-2-((2-methoxy-4-(2,8-diazaspiro[4.5]decan-8-yl)phenyl)amino)pyrimidin-4-yl)amino)phenyl)dimethylphosphine oxide]: 1 to 100 nM.
